From paper PMC6748665 (Journal of Medicinal Chemistry, 2019)

Target: T1, MtbTrmD (Mycobacterium tuberculosis, UniProt P9WFY7)
T1 sequence (P9WFY7 1-230): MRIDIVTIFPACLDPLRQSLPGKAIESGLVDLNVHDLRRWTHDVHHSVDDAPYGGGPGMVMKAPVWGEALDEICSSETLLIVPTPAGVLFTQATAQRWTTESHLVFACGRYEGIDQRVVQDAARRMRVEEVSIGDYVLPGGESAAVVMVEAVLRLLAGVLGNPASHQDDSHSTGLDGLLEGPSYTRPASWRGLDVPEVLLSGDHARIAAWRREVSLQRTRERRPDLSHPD
Assay: Surface plasmon resonance
Type: binding
Settings: SPR

Compound: CCCCCCCCNCc1ccc(CNC(=O)c2csc3nc[nH]c(=O)c23)cc1 [Compound 15, N-(4-((Octylamino)methyl)benzyl)-4-oxo-3,4-dihydrothieno[2,3-d]pyrimidine-5-carboxamide]
- lower affinity for MtbTrmD compared to the PaTrmD binding affinity: over 100 fold
